According to patent publication US20210198277A1, “AMINE-SUBSTITUTED ARYL OR HETEROARYL COMPOUNDS” (Epizyme, Inc., priority 2016, published 2021):

What was measured:
human EHMT2 913-1193 = molecular target: T1, human EHMT2 913-1193 (Homo sapiens, UniProt Q96KQ7); assay: EHMT2 enzyme assay on histone peptide substrate (EHMT2 PEP); format: biochemical; conditions: Table II; read-out: EHMT2 PEP (IC50 μM)
T1 construct: recombinant purified human EHMT2 913-1193, Viva; purchased Viva
T1 sequence (Q96KQ7 913-1193): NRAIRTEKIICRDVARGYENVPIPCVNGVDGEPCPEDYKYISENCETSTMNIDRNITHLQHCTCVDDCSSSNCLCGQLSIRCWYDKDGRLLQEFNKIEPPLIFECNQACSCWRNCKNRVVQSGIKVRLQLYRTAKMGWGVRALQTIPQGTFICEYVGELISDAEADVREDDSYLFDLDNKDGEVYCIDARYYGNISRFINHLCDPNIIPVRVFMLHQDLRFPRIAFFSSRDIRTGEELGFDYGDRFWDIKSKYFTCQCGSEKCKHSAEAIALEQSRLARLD
In short: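 Compounds were tested as 3-fold dilutions, 10 points from a 50 μM final top (2% DMSO), after 30-min preincubation with 0.031 nM enzyme in Bicine buffer pH 7.5. Transfer of ^3H-methyl from ^3H-SAM to biotinylated histone peptide ran 60 min at room temperature and was detected by streptavidin Flashplate scintillation.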

EHMT1 = molecular target: T2, EHMT1 (Homo sapiens, UniProt Q9H9B1); assay: EHMT1 enzyme assay on peptide substrate (EHMT1 PEP); format: biochemical; conditions: Table II; read-out: EHMT1 PEP (IC50 μM)
T2 sequence (Q9H9B1 1-1298): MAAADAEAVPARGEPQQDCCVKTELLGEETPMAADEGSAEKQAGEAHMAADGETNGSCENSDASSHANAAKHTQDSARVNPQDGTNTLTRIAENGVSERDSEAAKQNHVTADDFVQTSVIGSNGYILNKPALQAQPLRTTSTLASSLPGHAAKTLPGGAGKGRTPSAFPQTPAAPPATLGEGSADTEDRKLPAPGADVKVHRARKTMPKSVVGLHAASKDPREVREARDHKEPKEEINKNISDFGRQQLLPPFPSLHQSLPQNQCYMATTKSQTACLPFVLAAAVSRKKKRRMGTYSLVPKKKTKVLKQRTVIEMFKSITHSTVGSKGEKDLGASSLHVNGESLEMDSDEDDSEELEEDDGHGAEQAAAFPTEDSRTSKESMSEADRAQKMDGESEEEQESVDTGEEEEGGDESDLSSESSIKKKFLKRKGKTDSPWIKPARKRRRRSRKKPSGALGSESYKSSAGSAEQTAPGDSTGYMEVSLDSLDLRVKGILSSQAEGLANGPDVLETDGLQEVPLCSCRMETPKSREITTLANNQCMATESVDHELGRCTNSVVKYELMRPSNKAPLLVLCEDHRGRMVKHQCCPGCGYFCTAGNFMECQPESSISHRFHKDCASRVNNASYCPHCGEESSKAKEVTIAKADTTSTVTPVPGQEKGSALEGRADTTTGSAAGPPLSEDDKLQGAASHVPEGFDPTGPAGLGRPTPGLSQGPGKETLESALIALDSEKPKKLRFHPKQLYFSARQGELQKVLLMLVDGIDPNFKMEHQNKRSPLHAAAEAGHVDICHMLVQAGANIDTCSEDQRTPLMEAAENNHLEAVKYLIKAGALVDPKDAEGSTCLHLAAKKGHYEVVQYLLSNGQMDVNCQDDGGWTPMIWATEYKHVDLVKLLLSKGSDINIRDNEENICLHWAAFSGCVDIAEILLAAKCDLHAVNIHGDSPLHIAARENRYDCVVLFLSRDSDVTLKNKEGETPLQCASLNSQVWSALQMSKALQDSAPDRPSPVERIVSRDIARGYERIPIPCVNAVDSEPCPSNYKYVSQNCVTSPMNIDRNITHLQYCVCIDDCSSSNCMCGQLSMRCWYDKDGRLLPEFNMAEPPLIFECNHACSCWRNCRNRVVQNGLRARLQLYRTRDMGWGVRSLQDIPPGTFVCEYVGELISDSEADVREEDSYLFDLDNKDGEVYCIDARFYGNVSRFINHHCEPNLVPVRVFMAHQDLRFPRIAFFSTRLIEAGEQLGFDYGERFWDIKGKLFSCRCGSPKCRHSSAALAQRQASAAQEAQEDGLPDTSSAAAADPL

| Structure (SMILES) | IC50 (human EHMT2 913-1193) [µM] | IC50 (EHMT1) [µM] |
| --- | --- | --- |
| COc1ccc(Nc2cc(NCC3CCNCC3)ccn2)cc1OCCCN1CCCC1 [Compound 10, N^2-(4-methoxy-3-(3-(pyrrolidin-1-yl)propoxy)phenyl)-N^4-(piperidin-4-ylmethyl)pyridine-2,4-diamine] | < 0.1 | 0.1 to 1 |
| COc1ccc(Nc2nccc(N3CCC(NC(C)=O)CC3)n2)cc1OCCCN1CCCC1 [Compound 161] | > 10 | > 10 |
| COc1ccc(Nc2nccc(NC3CCS(=O)(=O)CC3)n2)cc1OCCCN1CCCC1 [Compound 152] | 1 to 10 | 1 to 10 |
| COc1ccc(Nc2nccc(-c3c(C)n[nH]c3C)n2)cc1OCCCN1CCCC1 [Compound 129] | > 10 | > 10 |
| COc1ccc(Nc2nccc(N3CCNc4ccccc4C3)n2)cc1OCCCN1CCCC1 [Compound 154] | 1 to 10 | > 10 |
| COc1ccc(Nc2cc(N(C)CC3CCN(C(C)=O)CC3)ccn2)cc1OCCCN1CCCC1 [Compound 163] | > 10 | > 10 |
| COc1ccc(Nc2nccc(N3CCCNC(=O)C3)n2)cc1OCCCN1CCCC1 [Compound 133] | 1 to 10 | > 10 |
| COc1ccc(Nc2nccc(N(C)Cc3ccccn3)n2)cc1OCCCN1CCCC1 [Compound 136] | 1 to 10 | 1 to 10 |
| COc1ccc(Nc2nccc(-c3c(C)noc3C)n2)cc1OCCCN1CCCC1 [Compound 130] | > 10 | > 10 |
| COc1ccc(Nc2nccc(N(C)CC3CCOCC3)n2)cc1OCCCN1CCCC1 [Compound 146] | > 10 | > 10 |
| COc1ccc(Nc2nccc(CNC(C)=O)n2)cc1OCCCN1CCCC1 [Compound 144] | > 10 | > 10 |
| COc1ccc(Nc2nccc(OCC3CCN(C(C)=O)CC3)n2)cc1OCCCN1CCCC1 [Compound 14, 1-(4-(((2-((4-methoxy-3-(3-(pyrrolidin-1-yl)propoxy)phenyl)amino)pyrimidin-4-yl)oxy)methyl)piperidin-1-yl)ethan-1-one] | > 10 | > 10 |
| COc1ccc(Nc2nccc(-c3c[nH]nc3C)n2)cc1OCCCN1CCCC1 [Compound 131] | > 10 | > 10 |
| COc1ccc(Nc2nccc(NCC3CCNCC3)n2)cc1OCC(O)CN1CCCC1 (stereo not drawn) [Compound 15, 1-(2-methoxy-5-((4-((piperidin-4-ylmethyl)amino)pyrimidin-2-yl)amino)phenoxy)-3-(pyrrolidin-1-yl)propan-2-ol] | < 0.1 | < 0.1 |
| COc1ccc(Nc2nccc(N3CCC(O)CC3)n2)cc1OCCCN1CCCC1 [Compound 148] | 1 to 10 | > 10 |
| CNC(=O)c1cnc(Nc2ccc(OC)c(OCCCN3CCCC3)c2)nc1 [Compound 9, 2-((4-methoxy-3-(3-(pyrrolidin-1-yl)propoxy)phenyl)amino)-N-methylpyrimidine-5-carboxamide] | 1 to 10 | > 10 |

Results, then the molecule that gave them:

| IC50 (human EHMT2 913-1193) [µM] | IC50 (EHMT1) [µM] | Structure (SMILES) |
| --- | --- | --- |
| > 10 | > 10 | COc1ccc(Nc2nccc(NCc3ccc4[nH]ncc4c3)n2)cc1OCCCN1CCCC1 [Compound 164] |
| > 10 | > 10 | COc1ccc(Nc2nccc(C)n2)cc1OCCCN1CCCC1 [Compound 174] |
| 1 to 10 | 1 to 10 | COc1ccc(Nc2nccc(N(C)C)n2)cc1OCCCN1CCCC1 [Compound 171] |
| 1 to 10 | 1 to 10 | CNc1nc(Nc2ccc(OC)c(OCCCN3CCCC3)c2)ncc1F [Compound 187] |
| 0.1 to 1 | 0.1 to 1 | COc1cnc(Nc2cc(NCC3CCN(C(C)=O)CC3)ccn2)cc1OCCCN1CCCC1 [Compound 182] |
| > 10 | > 10 | COc1ccc(Nc2nccc(N3CCN(c4ccccn4)CC3)n2)cc1OCCCN1CCCC1 [Compound 168] |
| > 10 | > 10 | COc1ccc(Nc2nccc(NCC3CCN(C(C)=O)CC3)n2)cc1OCCC(=O)N1CCCC1 [Compound 166] |
| 1 to 10 | 1 to 10 | COc1ccc(Nc2cc(OCC3CCN(C(C)=O)CC3)ccn2)cc1OCCCN1CCCC1 [Compound 173] |
